Assay results published in US9353089B2, “Compositions and methods for the treatment of malaria” (Saint Louis University, priority 2013, dated 2016).

test system: Plasmodium falciparum 3D7 (CQ-sensitive); experiment: In vitro antimalarial assay (malaria SYBR Green I-based fluorescence, MSF), 3D7; assay type: cell-based; settings: 3D7, 72 h, read-out: 3D7 % inh @ 1 μM
Method: Stock solutions of each test drug were prepared in DMSO at a concentration of 20 mM. The drug solutions were serially diluted with culture medium and distributed to asynchronous parasite cultures on 96-well plates in quadruplicate in a total volume of 100 μL to achieve 0.5% parasitemia with a 2% hematocrit in a total volume of 100 pt. […] After incubation, 100 μL of lysis buffer with 0.2 μL/mL SYBR Green I was added to each well.
Antimalarial potency of compounds was determined by this technique for both Plasmodium falciparum 3D7 (CQ-sensitive) and Dd2 (multi-drug resistant) strains.

SMILES	inhibition of growth at 1 µM
CC(C)COc1cccc(C2(c3cccc(-c4cccnc4)c3)NC(=N)N(C3CCOCC3)C2=O)c1 (centres unmarked) [Example 404, 2-imino-5-(3-isobutoxyphenyl)-5-(3-(pyridin-3-yl)phenyl)-3-(tetrahydro-2H-pyran-4-yl)imidazolidin-4-one]	7%

same assay, conditions: 3D7, Table 11, read-out: Pf 3D7 IC50

IC50	SMILES
0.424 µM	N=C1NC(c2ccccc2)(c2cccc(Oc3ccccc3)c2)C(=O)N1C1CCCCC1 (centres unmarked) [Example 238, 3-cyclohexyl-2-imino-5-(3-phenoxyphenyl)-5-phenylimidazolidin-4-one]
0.725 µM	N=C1NC(c2cccc(-c3cccnc3)c2)(c2cccc(-c3cccnc3)c2)C(=O)N1C1CCCCC1 [Example 269, 3-cyclohexyl-2-imino-5,5-bis[3-(pyridin-3-yl)phenyl]imidazolidin-4-one]

same assay, conditions: 3D7, Table 13, read-out: 3D7 IC50

IC50	SMILES
0.27 µM	N=C1NC(c2ccc(Cl)cc2)(C2CCCCC2)C(=O)N1C1CCOCC1 (centres unmarked) [Example 574, 5-(4-chlorophenyl)-5-cyclohexyl-2-imino-3-(tetrahydro-2H-pyran-4-yl)imidazolidin-4-one]
5.23 µM	COc1ccc(C2(c3ccc(OC)cc3)NC(=N)N(Cc3ccccc3F)C2=O)cc1 [Example 306, 3-[(2-fluorophenyl)-methyl]-2-imino-5,5-bis(4-methoxyphenyl)-imidazolidin-4-one]
1.33 µM	N=C1NC(c2cccc(O)c2)(C2CC2)C(=O)N1C1CCCCC1 (centres unmarked) [Example 549, 3-cyclohexyl-5-cyclopropyl-5-(3-hydroxyphenyl)-2-iminoimidazolidin-4-one]
0.424 µM	N=C1NC(c2ccccc2)(c2cccc(Oc3ccccc3)c2)C(=O)N1C1CCCCC1 (centres unmarked) [Example 238, 3-cyclohexyl-2-imino-5-(3-phenoxyphenyl)-5-phenylimidazolidin-4-one]
1.38 µM	CNC(=O)c1cccc(C2(c3ccccc3)NC(=N)N(C3CCCCC3)C2=O)c1 (centres unmarked) [Example 273, 3-(1-cyclohexyl-2-imino-5-oxo-4-phenylimidazolidin-4-yl)-N-methylbenzamide]
0.894 µM	COc1ccc(C2(c3ccc(OC)cc3)NC(=N)N(Cc3ccccc3Cl)C2=O)cc1 [Example 234, 3-[(2-chlorophenyl)-methyl]-2-imino-5,5-bis(4-methoxyphenyl)-imidazolidin-4-one]
0.4 µM	COc1ccc(C2(c3ccc(OC)cc3)NC(=N)N(C3CCN(Cc4ccccc4O)CC3)C2=O)cc1 [Example 571, 3-(1-(2-hydroxybenzyl)piperidin-4-yl)-2-imino-5,5-bis(4-methoxyphenyl)-imidazolidin-4-one]
2.74 µM	COc1ccc(C2(c3ccc(OC)cc3)NC(=N)N(C3CCN(Cc4ccccc4)CC3)C2=O)cc1 [Example 250, 3-(1-benzylpiperidin-4-yl)-2-imino-5,5-bis(4-methoxyphenyl)-imidazolidin-4-one]
0.644 µM	COc1ccc(C2(c3ccc(OC)cc3)NC(=N)N(Cc3cccc4ccccc34)C2=O)cc1 [Example 223, 2-imino-5,5-bis(4-methoxyphenyl)-3-(naphthalen-1-ylmethyl)-imidazolidin-4-one]
1.46 µM	N#Cc1cccc(-c2cccc(C3(C4CC4)NC(=N)N(C4CCCCC4)C3=O)c2)c1 (centres unmarked) [Example 486, 3′-(1-cyclohexyl-4-cyclopropyl-2-imino-5-oxoimidazolidin-4-yl)-[1,1′-biphenyl]-3-carbonitrile]
0.78 µM	N=C1NC(c2ccc(O)cc2)(C2CC2)C(=O)N1C1CCCCC1 (centres unmarked) [Example 551, 3-cyclohexyl-5-cyclopropyl-5-(4-hydroxyphenyl)-2-iminoimidazolidin-4-one]
5.32 µM	COc1ccccc1C1(C2CC2)NC(=N)N(C2CCOCC2)C1=O (centres unmarked) [Example 518, 5-cyclopropyl-2-imino-5-(2-methoxyphenyl)-3-(tetrahydro-2H-pyran-4-yl)imidazolidin-4-one]
2.87 µM	N=C1NC(c2cccc(Oc3ccccc3)c2)(C2CC2)C(=O)N1C1CCCCC1 (centres unmarked) [Example 570, 3-cyclohexyl-5-cyclopropyl-2-imino-5-(3-phenoxyphenyl)imidazolidin-4-one]
0.682 µM	COc1ccc(C2(c3ccc(OC)cc3)NC(=N)N(Cc3ccccn3)C2=O)cc1 [Example 229, 2-imino-5,5-bis(4-methoxyphenyl)-3-(pyridin-2-ylmethyl)-imidazolidin-4-one]
0.708 µM	COc1ccc(C2(c3ccc(OC)cc3)NC(=N)N(Cc3cccc(OC)c3)C2=O)cc1 [Example 236, 2-imino-5,5-bis(4-methoxyphenyl)-3-[(3-methoxyphenyl)-methyl]imidazolidin-4-one]
0.725 µM	N=C1NC(c2cccc(-c3cccnc3)c2)(c2cccc(-c3cccnc3)c2)C(=O)N1C1CCCCC1 [Example 269, 3-cyclohexyl-2-imino-5,5-bis[3-(pyridin-3-yl)phenyl]imidazolidin-4-one]
0.68 µM	N=C1NC(c2ccc(OC(F)(F)F)cc2)(C2CC2)C(=O)N1C1CCOCC1 (centres unmarked) [Example 494, 5-cyclopropyl-2-imino-3-(tetrahydro-2H-pyran-4-yl)-5-(4-(trifluoromethoxy)phenyl)imidazolidin-4-one]
0.828 µM	COc1cccc(C2(c3cccc(OCc4ccccc4)c3)NC(=N)N(C3CCCCC3)C2=O)c1 (centres unmarked) [Example 230]
> 20 µM	N=C1NC(c2ccccc2O)(C2CC2)C(=O)N1C1CCCCC1 (centres unmarked) [Example 573, 3-cyclohexyl-5-cyclopropyl-5-(2-hydroxyphenyl)-2-iminoimidazolidin-4-one]
1.99 µM	N#Cc1cccc(-c2cccc(C3(c4ccccc4)NC(=N)N(C4CCOCC4)C3=O)c2)c1 (centres unmarked) [Example 413, 3′-(2-imino-5-oxo-4-phenyl-1-(tetrahydro-2H-pyran-4-yl)imidazolidin-4-yl)-[1,1′-biphenyl]-3-carbonitrile]
1.09 µM	N=C1NC(c2ccc(Cl)cc2)(C2CCCCC2)C(=O)N1C1CCCCC1 (centres unmarked) [Example 575, 5-(4-chlorophenyl)-3,5-dicyclohexyl-2-iminoimidazolidin-4-one]
0.45 µM	COc1ccc(C2(c3ccc(OC)cc3)NC(=N)N(C3CCN(Cc4cc(Cl)ccc4O)CC3)C2=O)cc1 [Example 569, 3-(1-(5-chloro-2-hydroxybenzyl)piperidin-4-yl)-2-imino-5,5-bis(4-methoxyphenyl)-imidazolidin-4-one]
2.48 µM	N=C1NC(c2ccc(O)cc2)(c2ccc(O)cc2)C(=O)N1C1CCOCC1 [Example 550, 5,5-bis(4-hydroxyphenyl)-2-imino-3-(tetrahydro-2H-pyran-4-yl)imidazolidin-4-one]
0.81 µM	CC#Cc1cncc(-c2cccc(C3(C4CC4)NC(=N)N(C4CCCCC4)C3=O)c2)c1 (centres unmarked) [Example 515, 3-cyclohexyl-5-cyclopropyl-2-imino-5-(3-(5-(prop-1-yn-1-yl)pyridin-3-yl)phenyl)imidazolidin-4-one]
5.56 µM	COc1ccc(C2(c3ccc(OC)cc3)NC(=N)N(Cc3ccccc3Br)C2=O)cc1 [Example 307, 3-[(2-bromophenyl)-methyl]-2-imino-5,5-bis(4-methoxy-phenyl)imidazolidin-4-one]
5.65 µM	N=C1NC(c2cccc(O)c2)(C2CC2)C(=O)N1C1CCOCC1 (centres unmarked) [Example 519, 5-cyclopropyl-5-(3-hydroxyphenyl)-2-imino-3-(tetrahydro-2H-pyran-4-yl)imidazolidin-4-one]

SMILES	IC50
COc1cccc(C2(c3cccc(OC)c3)NC(=N)N(Cc3ccccc3)C2=O)c1 [Example 105, 3-benzyl-2-imino-5,5-bis(3-methoxy-phenyl)imidazolidin-4-one]	6.31 µM
N=C1NC(c2ccc(Br)cc2)(c2ccc(Br)cc2)C(=O)N1C1CCCCC1 [Example 154, 5,5-bis(4-bromophenyl)-3-cyclohexyl-2-iminoimidazolidin-4-one]	1.48 µM
COc1ccc(C2(c3cccc(-c4ccncc4)c3)NC(=N)N(C3CCCCC3)C2=O)cc1 (centres unmarked) [Example 172, 3-cyclohexyl-2-imino-5-(4-methoxyphenyl)-5-[3-(pyridin-4-yl)phenyl]-imidazolidin-4-one]	0.533 µM
COc1ccc(C2(c3ccc(OC)cc3)NC(=N)N(Cc3ccccc3OC)C2=O)cc1 [Example 248, 2-imino-5,5-bis(4-methoxyphenyl)-3-[(2-methoxyphenyl)-methyl]imidazolidin-4-one]	0.294 µM
CC(C)COc1ccc(C2(c3cccc(-c4cccnc4)c3)NC(=N)N(C3CCOCC3)C2=O)cc1 (centres unmarked) [Example 412, 2-imino-5-(4-isobutoxyphenyl)-5-(3-(pyridin-3-yl)phenyl)-3-(tetrahydro-2H-pyran-4-yl)imidazolidin-4-one]	4.21 µM

same assay, conditions: 3D7, read-out: 3D7 IC50 (μM), Table 13

SMILES	IC50
N=C1NC(c2cccc(-c3cccnc3)c2)(C2CC2)C(=O)N1C1CCCCC1 (centres unmarked) [Example 512, 3-cyclohexyl-5-cyclopropyl-2-imino-5-(3-(pyridin-3-yl)phenyl)imidazolidin-4-one]	0.38 µM

same assay, conditions: 3D7, read-out: Pf3D7 IC50 (μM), Table 10

SMILES	IC50
CCC(CN1C(=N)NC(c2ccccc2)(c2ccccc2)C1=O)c1ccccc1 (centres unmarked) [drawing 195]	2.76 µM

target: Plasmepsin-2 (PM-2; Plm II) (Plasmodium falciparum (isolate HB3), UniProt P46925); experiment: Plasmepsin-2 enzyme inhibition assay; assay type: biochemical; settings: Table 12; read-out: PM-2 IC50
Sequence (P46925 125-453 limits assumed): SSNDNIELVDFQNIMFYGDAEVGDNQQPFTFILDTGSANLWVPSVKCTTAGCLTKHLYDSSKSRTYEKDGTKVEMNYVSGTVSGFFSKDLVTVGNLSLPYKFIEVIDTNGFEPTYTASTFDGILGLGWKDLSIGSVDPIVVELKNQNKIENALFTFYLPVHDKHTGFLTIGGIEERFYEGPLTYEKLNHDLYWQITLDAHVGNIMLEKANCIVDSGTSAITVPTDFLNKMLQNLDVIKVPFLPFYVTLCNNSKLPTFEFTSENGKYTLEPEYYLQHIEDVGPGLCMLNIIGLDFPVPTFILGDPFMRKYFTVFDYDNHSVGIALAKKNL
Method: Plasmepsin-2 (PM-2; Plm II) and Plasmepsin (PM-4; Plm IV) expression and purification was performed following the published protocols (Istvan E S and Goldberg D E, 2005). The final purified protein was activated by diluting the protein to 0.3 mg/mL in activating buffer (0.1 M citrate pH 4.5, 0.1% Tween-20, 50 mM dithiothreitol) and incubated at room temperature for 40 min, then the activated enzyme was diluted in assay buffer (50 mM sodium acetate pH 4.7, 0.01% Tween-20). The enzymatic inhibition reaction was performed in 384 well plates with a total volume of 20 μl. 10 μl of diluted PM-2 or PM-4 enzyme was added to the 384-well plate except blank wells (blank wells add 10 μL of assay buffer) and 20 nL of serials of diluted 1000× compounds were added to the wells with 520 Echo® Liquid Handling System (Labcyte Inc.). 10 μL PM-2 peptide substrate (AnaSpec, Cat#, 62050) with assay buffer was then added to final concentration of 20 μM to start the reaction. After incubation the reaction at room temperature for 60 min, the fluorescence intensity at Ex/Em=360 nm/535 nm was measured using EnVision multilabel plate reader (Perkin-Elmer). The IC50 values were obtained using Graph Pad Prism 4 and are reported in Tables 8 and 9 below as PM-2 IC50 values.

SMILES	IC50
CN1C(=N)NC(c2ccccc2)(c2cccc(-c3cccnc3)c2)C1=O (centres unmarked) [Example 135, 2-imino-3-methyl-5-phenyl-5-[3-(pyridin-3-yl)phenyl]-imidazolidin-4-one]	1.01 µM

same assay, conditions: Table 13; read-out: PM-2 IC50

SMILES	IC50
COc1cccc(C2(c3cccc(OC)c3)NC(=N)N(Cc3ccccc3)C2=O)c1 [Example 105, 3-benzyl-2-imino-5,5-bis(3-methoxy-phenyl)imidazolidin-4-one]	0.0574 µM
N=C1NC(c2ccc(Br)cc2)(c2ccc(Br)cc2)C(=O)N1C1CCCCC1 [Example 154, 5,5-bis(4-bromophenyl)-3-cyclohexyl-2-iminoimidazolidin-4-one]	0.0099 µM
COc1ccc(C2(c3cccc(-c4ccncc4)c3)NC(=N)N(C3CCCCC3)C2=O)cc1 (centres unmarked) [Example 172, 3-cyclohexyl-2-imino-5-(4-methoxyphenyl)-5-[3-(pyridin-4-yl)phenyl]-imidazolidin-4-one]	0.00964 µM
COc1ccc(C2(c3ccc(OC)cc3)NC(=N)N(Cc3ccccc3OC)C2=O)cc1 [Example 248, 2-imino-5,5-bis(4-methoxyphenyl)-3-[(2-methoxyphenyl)-methyl]imidazolidin-4-one]	0.028 µM
